Assay results published in paper PMC7470115, “Design, synthesis and biological evaluation of novel tetrahydrothieno [2,3-c]pyridine substitued benzoyl thiourea derivatives as PAK1 inhibitors in triple negative breast cancer” (Journal of Enzyme Inhibition and Medicinal Chemistry, 2020).
Read-outs that look alike come from different tables or passages of the source.

How the values were obtained:
[1] = target: T1, PAK1 (Homo sapiens, UniProt Q13153); assay: PAK1 enzymatic assay (Kinase-Glo Plus / ADP-Glo luminescence); type: biochemical
T1 sequence (Q13153 whole entry): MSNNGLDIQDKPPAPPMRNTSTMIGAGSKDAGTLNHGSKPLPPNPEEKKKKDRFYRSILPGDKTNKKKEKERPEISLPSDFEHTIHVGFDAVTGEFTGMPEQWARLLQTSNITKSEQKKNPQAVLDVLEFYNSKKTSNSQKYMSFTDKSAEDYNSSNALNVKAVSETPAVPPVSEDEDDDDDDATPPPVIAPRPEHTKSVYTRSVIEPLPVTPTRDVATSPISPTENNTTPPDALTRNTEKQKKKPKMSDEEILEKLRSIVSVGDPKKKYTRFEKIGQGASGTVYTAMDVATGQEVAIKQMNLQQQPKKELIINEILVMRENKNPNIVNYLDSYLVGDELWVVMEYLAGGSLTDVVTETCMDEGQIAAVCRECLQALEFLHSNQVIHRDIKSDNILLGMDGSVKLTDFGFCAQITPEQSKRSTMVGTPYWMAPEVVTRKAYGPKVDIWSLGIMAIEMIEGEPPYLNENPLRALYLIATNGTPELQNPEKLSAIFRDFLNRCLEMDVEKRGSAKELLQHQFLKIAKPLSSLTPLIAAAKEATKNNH
Description: These assays were carried out as described previously. All of the enzymatic reactions were conducted at 30 °C for 40 min. The 50 µl reaction mixture contains 40 mM Tris, pH 7.4, 10 mM MgCl2, 0.1 mg/ml BSA, 1 mM DTT, 50 µM ATP, 0.2 μg/ml PAK1 and 100 uM lipid substrate. The compounds were diluted in 10% DMSO and 5 µl of the dilution was added to a 50 µl reaction so that the final concentration of DMSO is 1% in all of the reactions. The assay was performed using the Kinase-Glo Plus luminescence kinase assay kit and ADP-Glo Plus luminescence kinase assay kit. It measures kinase activity by quantitating the amount of ATP remaining in solution following a kinase reaction. The luminescent signal from the assay is correlated with the amount of ATP present and is inversely correlated with the amount of kinase activity. The IC50 values were calculated using nonlinear regression with normalised dose − response fit using Prism GraphPad software.

[2] = system: MDA-MB-231 cells; assay: Cell viability assay (MTT); type: cell-based; settings: for IC50: MTT
Description: (§1) MDA-MB-231 were purchased from American Type Culture Collection (ATCC, Manassas, VA, USA). Cells were cultured in DMEM with 10% foetal bovine serum and incubated with 5% CO2. Antibodies used in this study were as follows: cdc25c (4688, CST), pcdc2^Tyr[15] (4539, CST), cyclinB1 (4135, CST), PAK1 (ab223849, CST), p-PAK1^Ser199 (ab192814, abcam), JNK (9252, CST), p-JNK (9255, CST), c-Jun (9165, CST), p-c-Jun (3270, CST), p-c-Raf^Ser259(9421, CST), p-MEK ^Ser217/221 (9154, CST), p-ERK ^Thr202/Tyr204 (9101, CST), β-actin (3700, CST). MTT (M2128) was purchased from Sigma- Aldrich (St. Louis, MO, USA).
Cells were dispensed in 96-well plates at a density of 5 × 10^4 cells/ml. After 24 h or 48 h incubation, cells were treated with different concentrations of compounds for the indicated time periods. Cell viability was measured by the MTT assay.

[3] = system: MDA-MB-231 cells; assay: Cell cycle assay (PI staining, flow cytometry); type: cell-based; settings: 2.5, 5, 10 μM, 48 h
Description: For cell cycle detection, MDA-MB-231 cells were treated with 2.5, 5, 10 μM 7j for 48 h and then ethyl alcohol-fixed at 4 °C for 24 h. Then the cell cycle distribution were determined by flow cytometry analysis of PI staining.

[4] = target: T1, PAK1; assay: Western blot of PAK1 and p-PAK1 Ser199 in MDA-MB-231 cells; type: cell-based; settings: 48 h
Description: as §1
(§2) Cells were treated with 7j for indicated times. Both adherent and floating cells were collected. Western blot analysis was carried out. Briefly, the cell pellets were resuspended with lysis buffer consisting of Hepes 50 mM pH 7.4, Triton-X-100 1%, sodium orthovanada 2 mM, sodium fluoride 100 mM, edetic acid 1 mM, PMSF 1 mM, aprotinin (Sigma, MO, USA) 10 mg/L and leupeptin (Sigma) 10 mg/L and lysed at 4 °C for 1 h. After 12,000 rpm centrifugation for 15 min, the protein content of supernatant was determined by the Bio- Rad DC protein assay (Bio-Rad Laboratories, Hercules, CA, USA). Equal amounts of the total protein were separated by 10–15% SDS-PAGE and transferred to PVDF membranes, the membranes were soaked in blocking buffer (5% skimmed milk or BSA). Proteins were detected using primary antibodies, followed by HRP-conjugated secondary antibody and visualised by using ECL as the HRP substrate. Quantification of immunoblot was performed by Quantity One 4.4.

[5] = target: T1, PAK1; assay: Cellular thermal shift assay (CETSA); type: cell-based; settings: 10 μM, 24 h; 48, 52, 56 °C
Description: The ability of 7j to interact with and stabilise PAK1 protein in intact cells, was analysed as described before. Briefly, cells cultured in 100 × 20 mm tissue culture dishes at 90% confluence were treated with media containing DMSO or 7j (10 μM) for 24 h. After that cells were detached with trypsin and re-suspended in PBS. The cell suspension was heated for 3 min to 48, 52, and 56 °C. Subsequently, cells were lysed using liquid nitrogen and two repeated cycles of freeze-thaw. Precipitated proteins were separated from the soluble fraction by centrifugation at 17,000 g for 20 min. Soluble proteins, collected in the supernatant, were kept at −80 °C until Western blot analysis.

[6] = system: MDA-MB-231 cells; assay: Colony formation assay; type: cell-based
[7] = system: cdc25c/cdc2 pathway; assay: Immunofluorescence and western blot of cdc25c/cdc2 pathway in MDA-MB-231 cells; type: cell-based
Description: (§3) For immunofluorescence staining, non-specific antibody binding was blocked by incubating with PBS containing 1.5% goat serum. The MDA-MB-231 cells were sequentially incubated, starting with p-cdc2^Tyr[15] antibody (1:200), p-ERK1/2 ^Thr202/Tyr204 antibody (1:200) diluted in PBS containing 1% BSA incubated overnight at 4 °C, followed by addition of fluorescent-labelled secondary antibodies for 1 h at room temperature.
as §2
Cells were transfected with PAK1 (6361, CST) and negative control (6568, CST) siRNAs at 100 nM final concentration using Lipofectamine RNAiMAX/Lip3000 reagent (Invitrogen) according to the manufacturer’s instructions. The transfected cells were used for subsequent experiments 48 h later.

[8] = system: MAPK-ERK pathway; assay: Immunofluorescence and western blot of MAPK-ERK pathway in MDA-MB-231 cells; type: cell-based
Description: as §3, §2

[9] = system: MAPK-JNK pathway; assay: Western blot of MAPK-JNK pathway in MDA-MB-231 cells; type: cell-based; settings: 2.5, 5, 10 µM, 48 h western blot
Description: as §2

[10] = tested in triplicate, mean ± SD, 50 µM ATP, read-out: Kinase inhibitory activity (IC50, μM) PAK1
[11] = 2.5, 5, 10 µM, 48 h western blot

CC(=O)N1CCc2c(sc(NC(=S)NC(=O)c3cccc(C(F)(F)F)c3)c2C(N)=O)C1 [Compound 7d, 6-acetyl-2–(3-(3-(trifluoromethyl)benzoyl)thioureido)-4,5,6,7-tetrahydrothieno[2,3-c]pyridine-3-carboxamide]
IC50 [1, 10]: 1.15 ± 0.97 µM
melting point: 166 to 169 °C

CC(C)(C)OC(=O)N1CCc2c(sc(NC(=O)c3ccccc3)c2C(N)=O)C1 [2169–1087]
inhibition at 30 µM ([1]; read-out: PAK1 inhibition rate at 30 μM): 78%
IC50 [1, 10]: 23.5 µM
Antiproliferatory activity in MDA-MB-231 cells at 50 μM ([2]; 50 μM): no antiproliferatory activity

NC(=O)c1c(NC(=S)NC(=O)c2cccc(C(F)(F)F)c2)sc2c1CCN(C(=O)C1CC1)C2 [Compound 7j, 6-(cyclopropanecarbonyl)-2–(3-(3-(trifluoromethyl)benzoyl)thioureido)-4,5,6,7-tetrahydrothieno[2,3-c]pyridine-3-carboxamide]
Fold less PAK1 inhibitory activity in comparison to the standard FRAX597 ([1]; 7j versus FRAX597): over 10 fold
IC50 [1, 10]: 0.21 ± 0.05 µM
IC50 ([1]; value given in nM in the text, read-out: PAK1 IC50): 0.209 µM
IC50 ([2]; Homo sapiens, MDA-MB-231, 24 h, 24 h, read-out: MDA-MB-231 cell viability IC50, 24 h): 7.37 µM
IC50 ([2]; Homo sapiens, MDA-MB-231, 48 h, 48 h, read-out: MDA-MB-231 cell proliferation IC50, 48 h): 4.67 µM
IC50 ([2]; 48 h, read-out: MDA-MB-231 cell proliferation IC50, 48 h): 4.67 µM
Cell cycle arrest [3]: induced obviously G2/M cell cycle arrest
Phosphorylation of PAK1 at Ser199 ([4]; 2.5, 5, 10 μM): inhibited the phosphorylation of PAK1 at Ser199
PAK1 expression (western blot) ([4]; larger dose 10 μM): suppressed PAK1 expression
PAK1 expression (western blot) ([4]; smaller dose 2.5 μM and 5 μM): did not affect PAK1 expression
Thermal stabilisation of PAK1 (CETSA) [5]: could stabilise PAK1
Proliferation and colony formation ability of MDA-MB-231 cells [6]: obviously inhibited
p-cdc2 Tyr15 expression ([7]; 5 µM, 48 h immunofluorescence): obviously increased
Expression of cdc25c, cyclinB1, Pin1 and NEDD8 [7, 11]: could decrease the expression
Phosphorylation of p-cdc2 at Tyr15 after PAK1 knockdown ([7]; si-PAK1, 5 μM, 48 h): almost did not affect
p-ERK1/2 Thr202/Tyr204 expression and nucleus distribution ([8]; 5 µM, 48 h immunofluorescence): inhibited its expression and nucleus distribution
Phosphorylation of p-c-Raf, p-MEK1/2 and p-ERK1/2 [8, 11]: suppressed MAPK-ERK pathway
JNK and c-Jun phosphorylation [9]: decrease of JNK and c-Jun phosphorylation

NC(=O)c1c(NC(=S)NC(=O)c2cccc(C(F)(F)F)c2)sc2c1CCN(C(=O)c1ccccc1Cl)C2 [Compound 7c, 6–(2-chlorobenzoyl)-2–(3-(3-(trifluoromethyl)benzoyl)thioureido)-4,5,6,7-tetrahydrothieno[2,3-c]pyridine-3-carboxamide]
IC50 [1, 10]: 9.37 ± 1.03 µM
melting point: 166 to 169 °C
